Here are results for 15 molecules from patent publication US11540516B2, “M-diamide compound and preparation method therefor and use thereof” (priority 2018, dated 2023).

Where two headings read alike, the source gives them in different places.

Usually mortality stands for the share of the test organisms that died.

Assay type in all cases: in vivo
One data set deals with Mythimna separata. Description: Indoor bioactivity test against Mythimna separata (leaf dip). As to conditions: foliar, 3rd day after treatment. The source says:
The leaf dip method was used to assay the insecticidal activity of compounds to strains of Mythimna sepatata. Cut above ground part of fresh maize seedlings, about 10 cm. Dip the maize seedlings into the solution prepared with compound of this invention for 10 seconds and dry them in a cool environment. Then cut the dry maize seedlings into 3˜5 cm leaf sections and put 3 leaf sections into each petri dish. Put ten of 4th-instar larvae of Mythimna separatas into each dish, which was repeated by 3 times. Then the dishes were placed in an illumination incubator and incubated at 25° C. in the dark. Symptoms were investigated on the 1st, 2nd and 3rd day after treatment, and the mortality was calculated.

A further data set relates to Plutella xylostella. Briefly: Indoor bioactivity test against Plutella xylostella (leaf dip). As to conditions: foliar; for mortality at 0.4 ppm / mortality at 1 ppm: 3rd day after treatment. As to the method:
(§1) The leaf dip method was used to assay the insecticidal activity of compounds to strains of Plutella xylostella. Dip the leaf disc into the solution prepared with compound of this invention for 10 seconds, and dry them in a cool environment. Then place them in Petri dish with 4 discs per dish. Put the filter paper into the Petri dish to moisturize it. Put 10 of Plutella xylostella into each dish, which was repeated by 3 times. The dishes were placed in an illumination incubator and incubated at 25° C. with 14 hL: 10 hD illumination. The number of Plutella xylostella death was investigated on the 1st, 2nd and 3rd day after treatment, and the mortality was calculated.
According to the above method, compound 4 and KC1 were selected and parallelly tested against Plutella xylostella to compare their insecticidal activity.

A further data set has as its system Spodoptera litura. Briefly: Indoor bioactivity test against Spodoptera litura (leaf dip). As to conditions: foliar. As to the method:
as §1, with “Spodoptera litura.” for “Plutella xylostella.”, “Spodoptera litura” for “Plutella xylostella”
According to the above method, compound 4, 23 and KC1 were selected and parallelly tested against Spodoptera litura to compare the insecticidal activity.

The test system of data set [1] is Spodoptera exigua Hiibner. Briefly: Indoor bioactivity test against Spodoptera exigua Hiibner (leaf dip). Conditions: foliar, 3rd day after treatment. As to the method: as §1, with “strains of Spodoptera exigua Hiibner. Dip the” for “strains of Plutella xylostella. Dip the”, “10 of Spodoptera exigua Hiibners into each” for “10 of Plutella xylostella into each”, “number of Spodoptera exigua Hiibner death was” for “number of Plutella xylostella death was”

A further data set concerns Chilo suppressalis. Description: Indoor bioactivity test against Chilo suppressalis (rice stem dip). On the procedure: The leaf dip method was used to assay the insecticidal activity of compounds to strains of Chilo suppressalis. The rice was cultivated in a plastic pot with a diameter of 9 cm and a height of 10 cm. When the rice grew about 25 cm, the aerial part of robust and consistent rice seedlings were selectively cut. Their leaves were removed and their stems of about 8 cm were kept for use. Pour the solution prepared with compound of this invention into the Petri dish (about 40 mL) and immerse the rice stems into the solution for 10 seconds. Take rice stems out and dry them in a cool environment. Put a wet cotton ball at the bottom of finger-like glass tube and 5 rice stems in each tube. Put 10 of 3rd-instar larvae of Chilo suppressa into each tube, which was repeated by 3 times. Seal the tubes with black cotton cloth and tighten them with rubber band. The tubes were placed in a illumination incubator at 28° C. and incubated in the dark. The number of alive Chilo suppressalis and the total number were investigated 3 days after treatment. The mortality was calculated.
According to the above method, Compound 23 and KC2 were selected and parallelly tested against Chilo suppressalis.

The subject of a further data set is soybean thrips. Briefly: Biological activity on soybean thrips in greenhouse (foliar spray). As to the method:
Test system: naturally occurring thrips population on soybeans planted in greenhouse. The basic number of active thripses were more than 100 thripses per trifoliate leaf. Under the same conditions, the sensitivity of the thrips population to Spinetoram (dose: 50 mg/L) is 96.55% mortality on the 6th day after treatment.
The size of the plot: 10 m^2, no repetition.
Test formulation: each compound was made into 5% SL (compound 5%+emulsifier 5%+solvent to make up 100%).
(1) Spraying time: both adult and larva thripses were in the active period. The number of spray: 1 time.
(2) Standard for water usage: when dose was in mg/kg, the upper leaves were wet and water began to drop therefrom.
(3) Survey standard: count three single leaves as one leaf. Three leaves were randomly selected and investigated for the number of adult and larva thripses on them.
[…] 2 surveys were conducted.

[2] abbreviates: 24 h, read-out: Mortality (%) 1 d.
Setting [3] is: 48 h, read-out: Mortality (%) 2 d.
Where [4] appears, read: 72 h, read-out: Mortality (%) 3 d.
Where [5] appears, read: 3rd day after treatment, read-out: mortality of Chilo suppressalis.
Setting [6] is: dose 50 ppm, 1 d, foliar spray, 5% SL.
Setting [7] is: dose 50 ppm, 6 d, foliar spray, 5% SL.

`O=C(Nc1c(Br)cc(C(F)(C(F)(F)F)C(F)(F)F)cc1C(F)(F)F)c1cccc(N(C(=O)c2ccccc2)C(C2CC2)C2CC2)c1F` [Compound 22, N-(2-bromo-4-(perfluoropropan-2-yl)-6-(trifluoromethyl)phenyl)-3-(N-(dicyclopropylmethyl)benzamido)-2-fluorobenzamide]: the mortality at 1 ppm in the data set on Mythimna separata is at least 90%.

`CN(C(=O)c1ccccc1)c1cccc(C(=O)Nc2c(Br)cc(C(F)(C(F)(F)F)C(F)(F)F)cc2C(F)(F)F)c1F` [KC1 (broflanilide), broflanilide, reference compound]: the mortality at 0.04 ppm with Plutella xylostella (setting [2]) is 0%; in the data set on Plutella xylostella (setting [3]) it was 56.7%; in the data set with Plutella xylostella (setting [4]) it was 90%. Further, the mortality at 0.4 ppm with Spodoptera litura (setting [2]), with Spodoptera litura (setting [3]) and with Spodoptera litura (setting [4]) was 0% throughout. In addition, the values for the mortality at 1 ppm in the data set with Spodoptera litura (setting [2]), in the data set on Spodoptera litura (setting [3]) and in the data set with Spodoptera litura (setting [4]) were 26.7%, 33.3% and 33.3%, respectively.

`O=C(Nc1c(Br)cc(C(F)(C(F)(F)F)C(F)(F)F)cc1C(F)(F)F)c1cccc(N(CC2CC2)C(=O)c2ccc(Br)cc2)c1F` [Compound 46, N-(2-bromo-4-(perfluoropropan-2-yl)-6-(trifluoromethyl)phenyl)-3-(4-bromo-N-(cyclopropylmethyl)benzamido)-2-fluorobenzamide] gave a mortality at 1 ppm in data set [1] of 90%. For the same molecule, in the data set with Chilo suppressalis (setting [5]), the mortality at 5 ppm is at least 90%.

`CC(C1CC1)N(C(=O)c1ccccc1)c1cccc(C(=O)Nc2c(Br)cc(C(F)(C(F)(F)F)C(F)(F)F)cc2C(F)(F)F)c1F` (stereo not shown) [Compound 8, N-(2-bromo-4-(perfluoropropan-2-yl)-6-(trifluoromethyl)phenyl)-3-(N-(1-cyclopropylethyl)benzamido)-2-fluorobenzamide] came in with a mortality at 0.4 ppm in the data set with Plutella xylostella of at least 90%. In the data set on Mythimna separata, this molecule came in with a mortality at 1 ppm of at least 90%.

In turn, `COC(c1cc(Br)c(NC(=O)c2cccc(N(CC3CC3)C(=O)c3ccc(C(F)(F)F)cc3)c2F)c(C(F)(F)F)c1)(C(F)(F)F)C(F)(F)F` [Compound 38, N-(2-bromo-4-(1,1,1,3,3,3-hexafluoro-2-methoxypropan-2-yl)-6-(trifluoromethyl)phenyl)-3-(N-(cyclopropylmethyl)-4-(trifluoromethyl)benzamido)-2-fluorobenzamide] came in with a mortality at 1 ppm with Mythimna separata of at least 90%.

For `CN(C(=O)c1ccc(C#N)cc1)c1cccc(C(=O)Nc2c(Br)cc(C(F)(C(F)(F)F)C(F)(F)F)cc2C(F)(F)F)c1F` [KC2, reference compound], the mortality at 0.4 ppm in the data set with Chilo suppressalis (72 h, 0.4 ppm, 3d) stood at 0%. Besides, the mortality at 1 ppm with Chilo suppressalis (72 h, 1 ppm, 3d) was determined as 53.3%. In the data set with Chilo suppressalis (72 h, 2 ppm, 3d), this molecule gave a mortality at 2 ppm of 86.7%. The mortality at 5 ppm in the data set with Chilo suppressalis (72 h, 3d, read-out: Mortality (%, 3d) 5 ppm) came out at 93.3%.

As to `O=C(Nc1c(I)cc(C(F)(C(F)(F)F)C(F)(F)F)cc1C(F)(F)F)c1cccc(N(CC2CC2)C(=O)c2ccc(Br)cc2)c1F` [Compound 47, N-(2-iodo-4-(perfluoropropan-2-yl)-6-(trifluoromethyl)phenyl)-3-(4-bromo-N-(cyclopropylmethyl)benzamido)-2-fluorobenzamide], the mortality at 1 ppm is 90% in data set [1] and at least 90% in the data set with Mythimna separata. Moreover, the mortality at 0.4 ppm in the data set with Spodoptera litura (0.4 ppm, 3rd day after treatment, read-out: mortality of Spodoptera litura) is at least 90%. Further, the mortality at 10 ppm in the data set with Chilo suppressalis (3rd day after treatment) was at least 90%.

For the molecule `CC(C1CC1)N(C(=O)c1ccc(Br)cc1)c1cccc(C(=O)Nc2c(Br)cc(C(F)(C(F)(F)F)C(F)(F)F)cc2C(F)(F)F)c1F` (stereo not shown) [Compound 50, N-(2-bromo-4-(perfluoropropan-2-yl)-6-(trifluoromethyl)phenyl)-3-(4-bromo-N-(1-cyclopropylethyl)benzamido)-2-fluorobenzamide], in the data set with Chilo suppressalis (3rd day after treatment), the mortality at 10 ppm is at least 90%.

In the data set on Plutella xylostella, `CC(C1CC1)N(C(=O)c1ccc(F)cc1)c1cccc(C(=O)Nc2c(Br)cc(C(F)(C(F)(F)F)C(F)(F)F)cc2C(F)(F)F)c1F` (stereo not shown) [Compound 63, N-(2-bromo-4-(perfluoropropan-2-yl)-6-(trifluoromethyl)phenyl)-3-(N-(1-cyclopropylethyl)-4-fluorobenzamido)-2-fluorobenzamide] had a mortality at 1 ppm of at least 90%.

Consider `O=C(Nc1c(I)cc(C(F)(C(F)(F)F)C(F)(F)F)cc1C(F)(F)F)c1cccc(N(CC2CC2)C(=O)c2ccc(I)cc2)c1F` [Compound 53, N-(2-iodo-4-(perfluoropropan-2-yl)-6-(trifluoromethyl)phenyl)-3-(N-(cyclopropylmethyl)-4-iodobenzamido)-2-fluorobenzamide], for which the mortality at 10 ppm (in data set [1] (10 ppm); in the data set with Spodoptera litura (3rd day after treatment); in the data set on Chilo suppressalis (3rd day after treatment)) was at least 90% each time.

`CC(C1CC1)N(C(=O)c1ccc(Cl)cc1)c1cccc(C(=O)Nc2c(Br)cc(C(F)(C(F)(F)F)C(F)(F)F)cc2C(F)(F)F)c1F` (stereo not shown) [Compound 44, N-(2-bromo-4-(perfluoropropan-2-yl)-6-(trifluoromethyl)phenyl)-3-(4-chloro-N-(1-cyclopropylethyl)benzamido)-2-fluorobenzamide] gave a mortality at 1 ppm in the data set with Mythimna separata of at least 90%.

Take Spinetoram [reference compound]: the “sensitivity of the thrips population, mortality” value in the data set with soybean thrips (dose 50 mg/L, 6th day after treatment) is 96.55%. Besides, in the data set with soybean thrips (setting [6]), the “Mortality % 1 d” value stood at 93.94% and the “No. of thrips 1 d” value was 16. Also, in the data set on soybean thrips (setting [7]), the “Mortality % 6 d” value came to 96.55% and the “No. of thrips 6 d” value is 4.

Regarding `CC(C1CC1)N(C(=O)c1ccc(C(F)(F)F)cc1)c1cccc(C(=O)Nc2c(Br)cc(C(F)(C(F)(F)F)C(F)(F)F)cc2C(F)(F)F)c1F` (stereo not shown) [Compound 39, N-(2-bromo-4-(perfluoropropan-2-yl)-6-(trifluoromethyl)phenyl)-3-(N-(1-cyclopropylethyl)-4-(trifluoromethyl)benzamido)-2-fluorobenzamide], the mortality at 1 ppm in the data set on Plutella xylostella and with Mythimna separata was at least 90% in each case. Further, in the data set on Chilo suppressalis (3rd day after treatment), the mortality at 10 ppm is at least 90%.

In turn, `CC(C1CC1)N(C(=O)c1ccc(C#N)cc1)c1cccc(C(=O)Nc2c(Br)cc(C(F)(C(F)(F)F)C(F)(F)F)cc2C(F)(F)F)c1F` (stereo not shown) [Compound 26, N-(2-bromo-4-(perfluoropropan-2-yl)-6-(trifluoromethyl)phenyl)-3-(4-cyano-N-(1-cyclopropylethyl)benzamido)-2-fluorobenzamide] gave a mortality at 0.4 ppm in the data set on Plutella xylostella of at least 90%. Also, the mortality at 1 ppm in the data set on Mythimna separata is at least 90%. Further, the mortality at 5 ppm in the data set on Chilo suppressalis (setting [5]) was at least 90%.

In the case of `O=C(Nc1c(Br)cc(C(F)(C(F)(F)F)C(F)(F)F)cc1C(F)(F)F)c1cccc(N(CC2CC2)C(=O)c2ccc(I)cc2)c1F` [Compound 52, N-(2-bromo-4-(perfluoropropan-2-yl)-6-(trifluoromethyl)phenyl)-3-(N-(cyclopropylmethyl)-4-iodobenzamido)-2-fluorobenzamide], the mortality at 10 ppm in the data set on Spodoptera litura (3rd day after treatment) and in the data set with Chilo suppressalis (3rd day after treatment) was at least 90% in each case. Besides, the mortality at 1 ppm with Mythimna separata is at least 90%.
